The text below walks through data of patent US20110097426A1, “Methods for Safe and Effective Treatment Using Oxazaphosphorine Drugs” (Accentia Biopharmaceuticals, Inc., priority 2007, published 2011).

The subject of data set [1] is white blood cell (WBC) count. On the procedure: Nine patients were treated 50 mg/kg/day cyclophosphamide intravenously for four days (on Day-3 to Day 0).
On Day 6, (six days after completion of high-dose cyclophosphamide treatment), patients received G-CSF.

The test system of data set [2] is patients with aggressive relapsing-remitting multiple sclerosis.
Description: All 9 patients had aggressive relapsing-remitting multiple sclerosis, 8 of whom failed conventional therapy and 1 was untreated. Median age at time of entry was 29 years (range of 20 to 47 years). The mean number of gadolinium enhancing lesions on baseline MRI was 6.5 (range 3-11).

The structures appear in SMILES notation. Where two headings read alike, the source gives them in different places.

In the case of `O=P1(N(CCCl)CCCl)NCCCO1` (stereo not shown) [cyclophosphamide], the results for the “minimum WBC” value in data set [1] (patient HiCy01), in data set [1] (patient HiCy07) and in data set [1] (patient HiCy14) were 70, 6 and 31, respectively. The “minimum WBC count” value in data set [1] (patient HiCy11) turned out to be 24; in data set [1] (patient HiCy19) it was 50; in data set [1] (patients HiCy09 and HiCy15 (both)), 12. For the same molecule, in data set [1] (patients HiCy05 and HiCy13, within two weeks of treatment), the WBC count amounted to 0. The “reduction in disability (EDSS)” value in data set [2] (50 mg/kg/day i.v. for four days, 9 patients) stood at 50%. The “reduction in gadolinium enhancements” value in data set [2] (at 6 months, 50 mg/kg/day i.v. for four days, 9 patients) worked out at 90%; in data set [2] (by 18 months, 50 mg/kg/day i.v. for four days, 9 patients), 94%. Further, the adverse outcomes in data set [2] (initial cohort of 9 patients with severe relapsing MS) is reported as “no significant adverse outcomes”. In data set [2] (of 9 patients), the “patients having no disability (EDSS score of 0)” value is 3 patients. The “patients with EDSS score of 1” value in data set [2] (of 9 patients) worked out at 1 patient. Moreover, the “patients with an exacerbation during follow-up” value in data set [2] (of 9 patients, started on conventional MS therapy at 18 months) is recorded as “one”. In data set [2] (patient HiCy01), the “gadolinium enhancing lesions (GEL) at subsequent follow-up visits” value is on record as “did not have any GEL”. The “gadolinium enhancing lesions (GEL) at follow-up” value in data set [2] (patients HiCy05 and HiCy13, up to 24 months follow-up) is “no gadolinium enhancing lesions”; in data set [2] (patients HiCy11 and HiCy19 (HiCy19 only 6 months of follow-up)), “always had GEL on every follow up”. Also, in data set [2] (patients HiCy07 and HiCy14, who first went to 0 GEL), the “gadolinium enhancing lesions (GEL) on follow-up MRIs” value was “a single GEL”. Moreover, the “gadolinium enhancing lesions (GEL)” value in data set [2] (patients HiCy09 and HiCy15) is 0.
